According to patent US20100173935A1, “Muscarinic Receptor Agonists that are Effective in the Treatment of Pain, Alzheimer's Disease and Schizophrenia” (AstraZeneca AB, priority 2006, published 2010):

The compounds below were run against T1, hM5 (human Muscarinic receptor subtype 5) (Homo sapiens, UniProt P08912) (assay: Human M5 calcium mobilization FLIPR assay). Conditions: CHO cells expressing hM5, Ca2+ release.
T1 construct: expressed in transfected cells; host or cells: CHO cells (ATCC)
T1 sequence (P08912 1-532): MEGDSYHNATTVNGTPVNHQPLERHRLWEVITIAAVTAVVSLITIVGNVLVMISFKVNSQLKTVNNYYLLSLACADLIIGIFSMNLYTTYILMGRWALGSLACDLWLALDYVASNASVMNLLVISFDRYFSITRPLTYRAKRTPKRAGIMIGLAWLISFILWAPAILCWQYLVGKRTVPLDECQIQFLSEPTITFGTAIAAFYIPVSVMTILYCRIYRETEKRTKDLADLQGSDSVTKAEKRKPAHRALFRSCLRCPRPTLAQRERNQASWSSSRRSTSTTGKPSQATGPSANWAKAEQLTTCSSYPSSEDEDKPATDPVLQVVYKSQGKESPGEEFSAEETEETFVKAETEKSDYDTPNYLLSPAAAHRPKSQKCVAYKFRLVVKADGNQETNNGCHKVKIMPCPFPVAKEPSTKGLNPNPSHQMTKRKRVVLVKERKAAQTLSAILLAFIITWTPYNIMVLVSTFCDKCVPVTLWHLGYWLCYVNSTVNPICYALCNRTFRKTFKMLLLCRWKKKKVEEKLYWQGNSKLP
Assay type: cell-based
Method: The compound activity in the present invention (EC50 or IC50) was measured using a 384 plate-based imaging assay that monitors drug induced intracellular Ca^2+ release in whole cells. Activation of hM1 (human Muscarinic receptor subtype 1, gene bank access NM_000738), rM1 (rat Muscarinic receptor subtype 1, gene bank access NM_080773), hM3 (human Muscarinic receptor subtype 3, gene bank access NM_000740NM_000740) and hM5 (human Muscarinic receptor subtype 5, gene bank access NM_0121258), receptors expressed in CHO cells (chinese hamster ovary cells, ATCC) was quantified in a Molecular Devices FLIPR II™ instrument as an increase in fluorescent signal. Inhibition of hM3 and hM5 by compounds was determined by the decrease in fluorescent signal in response to 20 nM carbachol activation.
CHO cells were plated in 384-black polylysine coated plate (Costar) at 8000 cells/well/50 μl for 24 hours or 4000 cells/well for 48 hours in a humidified incubator (5% CO2 and 37° C.) in DMEM/F12 medium without selection agent. Prior to the experiment the cell culture medium was removed from the plates by inversion. A loading solution of 30 μl of Hank's balanced salt solution, 10 mM Hepes and 2.5 mM Probenicid at Ph 7.4 (Cat no. 311-520-VL, Wisent) with 2 μM calcium indicator dye (FLUO-3AM, Molecular Probes F14202) was added to each well. Plates were incubated at 37° C. for 60 minutes prior to start the experiment. The incubation was terminated by washing the cells four times in assay buffer, leaving a residual 25 μl buffer per well. Cell plates were then transferred to the FLIPR, ready for compound additions.
The day of experiment, carbachol and compounds were diluted in three-fold concentration range (10 points serial dilution) for addition by FLIPR instrument. For all calcium assays, a baseline reading was taken for 30 seconds followed by the addition of 12.5 μl (25 μl for hM1 and rM1) of compounds, resulting in a total well volume of 37.5 μl (50 μl for hM1 and rM1). Data were collected every 1.6 seconds for 300 seconds. For hM3 and hM5 an additional 12.5 μl of carbachol (20 nM final) was added at 300 seconds. After this addition of carbachol (producing a final volume of 50 μl), the FLIPR continued to collect data every 2 seconds for 240 seconds. The fluorescence emission was read using filter 1 (emission 520-545 nm) by the FLIPR on board CCD camera.
Calcium mobilization output data were calculated as the maximal relative fluorescence unit (RFU) minus the minal value for both compound and agonist reading frame (except for hM1 and rM1 using only the maximal RFU). Data were analyzed using sigmoidal fits of a non-linear curve-fitting program (XLfit version 5.0.6 from ID Business Solutions Limited, Guildford, UK). All EC50 and IC50 values are reported as arithmetic means±standard error of mean of ‘n’ independent experiments.

Structure (SMILES) | EC50 [nM]
CCOC(=O)N1CC[C@@H](N2CCC(n3c(=O)[nH]c4ccc(F)cc43)CC2)C1 (single isomer, unassigned) [Example 36] | > 40000
Cn1c(=O)n(C2CCN([C@H]3CCN(C(=O)CCN4CCCC4=O)C3)CC2)c2ccccc21 [Example 24, 1-methyl-3-(1-{(3S)-1-[3-(2-oxopyrrolidin-1-yl)propanoyl]pyrrolidin-3-yl}piperidin-4-yl)-1,3-dihydro-2H-benzimidazol-2-one] | > 40000
CCOC(=O)N1CCC(N2CCC(C3C(=O)Nc4ccccc43)CC2)C1 (stereo not drawn) [Example 13, Ethyl 3-[4-(2-oxo-2,3-dihydro-1H-indol-3-yl)piperidin-1-yl]pyrrolidine-1-carboxylate] | > 40000
CCOC(=O)N1CC[C@H](N2CCC(n3c(=O)[nH]c4ccc(F)cc43)CC2)C1 (single isomer, unassigned) [Example 35] | 905
CCOC(=O)N1CC[C@H](N2CCC(N3C(=O)Cc4ccccc43)CC2)C1 [Example 26, Ethyl (3S)-3-[4-(2-oxo-2,3-dihydro-1H-indol-1-yl)piperidin-1-yl]pyrrolidine-1-carboxylate] | 341
O=C1CCCN1CCC(=O)N1CC[C@H](N2CCC(N3C(=O)Cc4ccccc43)CC2)C1 [Example 29, 1-(1-{(3S)-1-[3-(2-oxopyrrolidin-1-yl)propanoyl]pyrrolidin-3-yl}piperidin-4-yl)-1,3-dihydro-2H-indol-2-one] | 708
CCOC(=O)N1CC[C@@H](N2CCC(n3c(=O)[nH]c4ccccc43)CC2)C1 [Example 16, Ethyl (3R)-3-[4-(2-oxo-2,3-dihydro-1H-benzimidazol-1-yl)piperidin-1-yl]pyrrolidine-1-carboxylate] | > 40000
CCOC(=O)N1CC[C@H](N2CCC(n3c(=O)[nH]c4ccc(C#N)cc43)CC2)C1 [Example 41, Ethyl (3S)-3-[4-(6-cyano-2-oxo-2,3-dihydro-1H-benzimidazol-1-yl)piperidin-1-yl]pyrrolidine-1-carboxylate] | 534
O=C(C1CCCC1)N1CC[C@H](N2CCC(n3c(=O)[nH]c4ccccc43)CC2)C1 [Example 19, 1-{1-[(3S)-1-(cyclopentylcarbonyl)pyrrolidin-3-yl]piperidin-4-yl}-1,3-dihydro-2H-benzimidazol-2-one] | 833
